Source: patent publication US20120259126A1, “[…]” (UNIVERSITAT HEIDELBERG, priority 2009, published 2012)

Conditions: 24° C.

In the case of `C1CCOC1.C1CCOC1.C1CCOC1.C1CCOC1.CC(C)(C)c1cc2c(c(C(C)(C)C)c1)O[B-]1(Oc3c-2cc(C(C)(C)C)cc3C(C)(C)C)Oc2c(cc(C(C)(C)C)cc2C(C)(C)C)-c2cc(C(C)(C)C)cc(C(C)(C)C)c2O1.[Li+]` [lithium tetrakis(tetrahydrofuran)bis(3,3′,5,5′-tetra-tert-butyl-2,2′-diphenolato)borate(III)], the “solubility in pentane (maximum concentrations)” value is reported as “at least 21 g/L”.
